{"source": "patent US20070292403A1", "about": "“Methods of treating a neurological disorder with creatine monohydrate” (priority 2006, published 2007)", "system": "symptomatic subjects with Huntington's disease", "assay_type": "in vivo, human", "protocol": "A two-phase open-label study was conducted to better determine an optimal dose of creatine symptomatic subjects with Huntington's disease. A dose-escalation study (10-40 grams per day) was conducted to determine the maximally tolerated dose (MTD) followed by a de-escalation phase to assess whether brain and serum levels of creatine might be maximal at doses lower than the MTD. Ten subjects were enrolled and followed prospectively for two weeks at each done level increasing in 5-gram increments during dose escalation that lasted 13 weeks. Assessments at each visit included UHDRS, EKG, vital signs, clinical safety and research labs. MRI spectroscopy was conducted prior to baseline at peak done (40 grams) and one month after de-escalation to either 30 or 15 grams daily. To determine an optimal dose, pharmacokinetic as well as clinical data were considered. Once the maximal dose was reached, subjects were assigned one of two lower doses previously taking (15 grams a day (n=5) or 30 grams a day (n=5)). Serum creatine was assessed at baseline, at the end of each 2-week dose escalation step and at the end of the de-escalation phase to assess the correspondence between serum and brain levels of creatine at steady state.\nSubjects at the end of this study were given the option to continue a long-term study to evaluate the long-term safety and tolerability of high dosage of creatine. Subjects have been followed for nine months on creatine. […] Adverse events have been infrequent and mild to moderate in grade and 30 grams daily creatine has been well-tolerated for 9 months. Laboratory abnormalities have been mild. […] Thus long term administration of 30 grams daily of creatine appears to be safe and well-tolerated.", "key": {"[1]": {"settings": "De-escalation Baseline, 15 g/day, N 5"}, "[2]": {"settings": "De-escalation Baseline, 30 g/day, N 5"}, "[3]": {"settings": "Week 24 (Visit 4), 30 g/day, N 10"}}, "note": "Read-outs that look alike come from different tables or passages of the source.", "data": [{"smiles": "CN(CC(=O)O)C(=N)N", "note": "[Creatine, creatine monohydrate]", "values": [{"measurement": "Independence Score", "setting": "[1]", "result": "75.0 (8.7)"}, {"measurement": "Stroop Color Naming", "setting": "[1]", "result": "52.8 (22.9)"}, {"measurement": "Stroop Interference", "setting": "[1]", "result": "23.8 (13.1)"}, {"measurement": "Stroop Word Reading", "setting": "[1]", "result": "56.0 (24.3)"}, {"measurement": "Symbol Digit Modalities Test", "setting": "[1]", "result": "29.0 (10.6)"}, {"measurement": "Total Chorea Score", "setting": "[1]", "result": "5.5 (1.7)"}, {"measurement": "Total Functional Assessment", "setting": "[1]", "result": "10.6 (9.8)"}, {"measurement": "Total Functional Capacity", "setting": "[1]", "result": "8.8 (1.8)"}, {"measurement": "Verbal Fluency Test", "setting": "[1]", "result": "15.8 (16.0)"}, {"measurement": "Independence Score", "setting": "[2]", "result": "82.5 (14.4)"}, {"measurement": "Stroop Color Naming", "setting": "[2]", "result": "57.8 (24.2)"}, {"measurement": "Stroop Interference", "setting": "[2]", "result": "40.0 (19.6)"}, {"measurement": "Stroop Word Reading", "setting": "[2]", "result": "90.0 (24.2)"}, {"measurement": "Symbol Digit Modalities Test", "setting": "[2]", "result": "34.0 (20.5)"}, {"measurement": "Total Chorea Score", "setting": "[2]", "result": "7.8 (4.3)"}, {"measurement": "Total Functional Assessment", "setting": "[2]", "result": "15.8 (10.2)"}, {"measurement": "Total Functional Capacity", "setting": "[2]", "result": "9.8 (3.4)"}, {"measurement": "Verbal Fluency Test", "setting": "[2]", "result": "28.3 (15.8)"}, {"measurement": "Independence Score", "setting": "[3]", "result": "82.5 (8.9)"}, {"measurement": "Stroop Color Naming", "setting": "[3]", "result": "51.7 (21.37)"}, {"measurement": "Stroop Interference", "setting": "[3]", "result": "31.3 (15.23)"}, {"measurement": "Stroop Word Reading", "setting": "[3]", "result": "62.7 (24.11)"}, {"measurement": "Symbol Digit Modalities Test", "setting": "[3]", "result": "30.56 (12.63)"}, {"measurement": "Total Chorea Score", "setting": "[3]", "result": "7.0 (4.1)"}, {"measurement": "Total Functional Assessment", "setting": "[3]", "result": "19.6 (4.1)"}, {"measurement": "Total Functional Capacity", "setting": "[3]", "result": "8.7 (2.2)"}, {"measurement": "Verbal Fluency Test", "setting": "[3]", "result": "26.6 (17.67)"}, {"measurement": "Serious adverse effects", "setting": "human, in vivo", "result": "no serious adverse effects"}, {"measurement": "Tolerability", "setting": "human, in vivo", "result": "well-tolerated"}, {"measurement": "Clinical changes (UHDRS subscores)", "setting": "long-term follow-up, up to 9 months", "result": "no significant clinical changes"}]}]}
